Patent US5631133A, “Transition in transcriptional activation by intracellular hormone receptors at the tumor stage of dermal fibrosarcoma development” (The Regents of the University of California, priority 1995, dated 1997)

Legend:
[1] = tested on: GR and AP-1 (composite element G(26)A); assay: Transient transfection of G(26)A3-Luc composite GRE luciferase reporter, hormone responsiveness; assay type: cell-based, mouse; conditions: 100 nM dexamethasone, 24 h
Description: Where indicated, the expression vector 6RGR was co-transfected.
In view of the observed changes in GR and AP-1 activities, we next tested a composite element that requires both factors for transcriptional activation. The synthetic composite element, G(26)A, which resembles a sequence in the glucocorticoid regulatory region of the glutamine synthetase gene (Zhang and Young (1991) J. Biol. Chem., 266:24332-24338), contains the TAT GRE sequence linked through a 15 bp spacer to the collagenase AP-1 sequence. In this configuration, neither GR alone nor AP-1 alone (either Jun homodimers or Jun-Fos heterodimers) activates a linked reporter gene in transfected embryonal earcinoma F9 cells (which express low levels of endogenous GR and AP-1 factors), whereas co-transfection of GR and AP-1 (Jun-Jun or Jun-Fos) produces a strong synergistic activation upon hormone addition. We transfected a luciferase reporter construct containing three copies of the G(26)A composite element, G(26)A3-Luc, into cell cultures representing each stage of the fibrosarcoma progression.

[2] = target: endogenous glucocorticoid receptor (GR) (Mus musculus, UniProt P06537)
Description: Cultures were established from skin and tumor tissues of several independent BPV transgenic mice (Sippola-Thiele et al., 1989), and maintained in Dulbecco's modified Eagle's medium (DMEM-21, high glucose formulation; Gibco-BRL) containing 8% fetal calf serum (Hyclone). Cells were propagated for no longer than five weeks and always used at low passage number (1-30). Several cultures were tested from each stage of the tumorigenic process: normal fibroblasts, NF (23784, 40950); mild fibromatosis, MF (39614, 14249, 27877); aggressive fibromatosis, AF (BPV7, BPV3, BPV21); fibrosarcoma, FS (BPV1, BPV22, BPV2, BPV11).
Cells were plated at least 12 h before transfeetion at ~0.5×10^6 cells per 6 cm dish. Reporter gene DNA (2 μg), together with the 6RZ (100 ng) as an internal control for efficiency of transfection, were introduced into cells using the DEAE-dextran method (Ausubel). Where indicated, the expression vector 6RGR was co-transfected. After exposure to the DNA/DEAE-dextran mixture, the cells were incubated for 24 h in fresh medium containing charcoal-strippedserum (Miesfeld et al., 1987) with or without 100 nM dexamethasone (Sigma). Cells were harvested and the luciferase activity measured according to the instructions of the manufacturer (Promega) and normalized for β-galactosidase expression as previously described (Miner and Yamamoto (1992) Genes Dev., 6:2491-2501). Each experiment was repeated at least six times and the results averaged.
To monitor the activity of the endogenous glucocorticoid receptor (GR) during dermal fibroblast tumorigenesis, we performed transient transfection assays using low passage primary cell lines representative of the four stages in this multistep pathway: normal dermal fibroblasts, NF; mild fibromatosis, MF; aggressive fibromatosis, AF; fibrosarcoma, FS. […] We first measured the hormone responsiveness of a reporter construct, TAT3-Luc, containing three tandem simple GREs derived from the tyrosine aminotransferase (TAT) gene (Jantzen et al., 1987).

[3] = target: glucocorticoid receptor (GR) (Mus musculus, UniProt P06537); conditions: NF, MF, AF and FS cells; 500 nM dexamethasone, 2 h
glucocorticoid receptor (GR), sequence (P06537 whole entry): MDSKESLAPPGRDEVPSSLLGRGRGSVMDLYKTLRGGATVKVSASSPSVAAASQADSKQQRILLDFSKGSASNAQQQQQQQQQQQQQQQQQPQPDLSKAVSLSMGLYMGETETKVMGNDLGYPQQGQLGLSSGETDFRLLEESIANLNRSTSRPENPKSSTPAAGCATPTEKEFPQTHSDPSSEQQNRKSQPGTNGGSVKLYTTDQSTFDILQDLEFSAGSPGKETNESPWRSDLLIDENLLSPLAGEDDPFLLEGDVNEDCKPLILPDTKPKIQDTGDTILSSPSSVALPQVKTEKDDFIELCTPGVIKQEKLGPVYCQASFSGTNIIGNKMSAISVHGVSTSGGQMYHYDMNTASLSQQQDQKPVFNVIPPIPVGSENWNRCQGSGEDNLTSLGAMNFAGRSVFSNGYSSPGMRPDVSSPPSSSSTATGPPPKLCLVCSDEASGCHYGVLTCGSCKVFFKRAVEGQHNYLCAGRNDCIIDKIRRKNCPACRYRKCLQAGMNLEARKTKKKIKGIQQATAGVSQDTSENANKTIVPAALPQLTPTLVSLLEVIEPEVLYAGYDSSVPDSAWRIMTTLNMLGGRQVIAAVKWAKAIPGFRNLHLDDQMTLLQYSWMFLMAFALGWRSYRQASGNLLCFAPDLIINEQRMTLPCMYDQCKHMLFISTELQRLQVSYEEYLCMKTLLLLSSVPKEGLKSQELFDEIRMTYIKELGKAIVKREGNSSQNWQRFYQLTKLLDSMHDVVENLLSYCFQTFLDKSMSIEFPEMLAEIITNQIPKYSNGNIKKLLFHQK
Description: Cells were grown in 24-well plates (Corning). The medium was changed to serum-free, phenol-red free DMEM, supplemented with insulin (5 μg/ml) and transferrin (10 μg/ml), with or without 500 nM dexamethasone for 2 h. After three washes with ice-cold PBS, cells were fixed with cold (-20° C.) methanol for 10 min, and then washed with TBS. Nonspecific binding sites were blocked in blocking buffer (BB) (TBS, 1% Triton, 1% glycine, 3% bovine serum albumin and 10% normal goat serum). […] Diaminobenzidine (Sigma) was used as a substrate for the peroxidase reaction.
To assesss the nature of the differential GR activity, we examined the ligand-dependent nuclear translocation of GR in normal dermal fibroblasts and the three progressive conditions, MF, AF and FS.

endogenous glucocorticoid receptor (GR), sequence (P06537 whole entry): as above

C[C@@H]1C[C@H]2[C@@H]3CCC4=CC(=O)C=C[C@]4(C)[C@@]3(F)[C@@H](O)C[C@]2(C)[C@@]1(O)C(=O)CO [dexamethasone]
hormonal induction through the G(26)A element ([1]; AF cells): only a modest hormonal induction | induction of luciferase activity (G(26)A3-Luc) ([1]; tumor (FS) cells): dramatically induced | hormonal induction of luciferase activity (TAT3-Luc) ([2]; FS (fibrosarcoma) cells, 100 nM dexamethasone, 24 h): strong hormonal induction | stimulation of basal luciferase activity (TAT3-Luc) ([2]; NF, MF or AF cell lines, 100 nM dexamethasone, 24 h): only a modest stimulation | transcriptional response (TAT3-Luc) ([2]; nNF, dermal fibroblasts from non-transgenic mice): low transcriptional response | nuclear translocation of GR [3]: efficiently translocated to the nucleus
